Laboratory results from ChEMBL document CHEMBL5226288, “A perspective on medicinal chemistry approaches towards adenomatous polyposis coli and Wnt signal based colorectal cancer inhibitors” (Eur J Med Chem, 2021).
pIC50: −log10 of the molar value. Blank lines part the entries; values can stand above or below the molecule they belong to.

Columns and labels:
DLD-1 [1] = experiment: Antiproliferative activity against human DLD-1 cells assessed as reduction in cell proliferation; type: functional, cell-based
SW480 [2] = experiment: Antiproliferative activity against human SW480 cells assessed as reduction in cell proliferation; type: functional, cell-based
HCT-116 [3] = experiment: Antiproliferative activity against human HCT-116 cells assessed as decrease in cell growth incubated for 24 hrs by MTS assay; type: functional, cell-based; conditions: HCT-116, 24 h
DLD-1 [4] = experiment: Antiproliferative activity against human DLD-1 cells assessed as reduction in cell viability by MTS assay; type: functional, cell-based
SW480 [5] = experiment: Antiproliferative activity against human SW480 cells assessed as reduction in cell viability; type: functional, cell-based
HCT-116 [6] = experiment: Antiproliferative activity against human HCT-116 cells assessed as reduction in cell viability; type: functional, cell-based
SW480 [7] = experiment: Antiproliferative activity against human SW480 cells assessed as reduction in cell proliferation incubated for 24 hrs by MTT assay; type: functional, cell-based; conditions: SW480, 24 h
HCT-116 [8] = experiment: Antiproliferative activity against human HCT-116 cells assessed as reduction in cell proliferation incubated for 24 hrs by MTT assay; type: functional, cell-based; conditions: HCT-116, 24 h
DLD-1 [9] = experiment: Cytotoxicity in human DLD-1 cells expressing APC mutant assessed as reduction in cell viability incubated for 96 hrs by Cell Titer-Glo assay; type: functional, cell-based; conditions: DLD-1, 96 h
HCT-116 [10] = experiment: Cytotoxicity in human HCT-116 cells expressing wild type APC assessed as reduction in cell viability incubated for 96 hrs by Cell Titer-Glo assay; type: functional, cell-based; conditions: HCT-116, 96 h
DLD-1 [11] = experiment: Anticancer activity against human DLD-1 cells assessed as reduction in cell viability; type: functional, cell-based
SW480 [12] = experiment: Anticancer activity against human SW480 cells assessed as reduction in cell viability; type: functional, cell-based
DLD-1 [13] = experiment: Anticancer activity against human DLD-1 cells assessed as reduction in cell growth incubated for 72 hrs by MTT assay; type: functional, cell-based; conditions: DLD-1, 72 h
HCT-116 [14] = experiment: Anticancer activity against human HCT-116 cells assessed as reduction in cell growth incubated for 72 hrs by MTT assay; type: functional, cell-based; conditions: HCT-116, 72 h
SW480 [15] = experiment: Anticancer activity against human SW480 cells assessed as reduction in cell growth incubated for 72 hrs by MTT assay; type: functional, cell-based; conditions: SW480, 72 h
LoVo = experiment: Antiproliferative activity against human LoVo cells assessed as decrease in cell viability by MTT assay; type: functional, cell-based
HCT-116 [16] = experiment: Anticancer activity against human HCT-116 cells assessed as reduction in cell viability incubated for 24 hrs by Cell Titer-Glo assay; type: functional, cell-based; conditions: HCT-116, 24 h
DLD-1 [17] = experiment: Anticancer activity against human DLD-1 cells assessed as reduction in cell viability incubated for 24 hrs by Cell Titer-Glo assay; type: functional, cell-based; conditions: DLD-1, 24 h
SW480 [18] = experiment: Anticancer activity against human SW480 cells assessed as decrease in cell growth incubated for 72 hrs by tryphan blue staining based cell counter analysis; type: functional; conditions: SW480, 72 h
HCT-116 [19] = experiment: Anticancer activity against human HCT-116 cells assessed as decrease in cell growth incubated for 72 hrs by tryphan blue staining based cell counter analysis; type: functional; conditions: HCT-116, 72 h
HCT-116 [20] = experiment: Anticancer activity against human HCT-116 cells assessed as reduction in cell viability incubated for 24 hrs by MTT assay; type: functional, cell-based; conditions: HCT-116, 24 h
SW480 [21] = experiment: Anticancer activity against human SW480 cells assessed as reduction in cell viability incubated for 24 hrs by MTT assay; type: functional, cell-based; conditions: SW480, 24 h

Compound: O=C(O)c1ccc(-n2nc(-c3ccccc3O)nc2-c2ccccc2O)cc1 [DEFERASIROX]
- pIC50 (DLD-1 [1]): 5.47
- pIC50 (SW480 [2]): 5.41

Compound: CC(=O)N(O)CCCCCNC(=O)CCC(=O)N(O)CCCCCNC(=O)CCC(=O)N(O)CCCCCN [DEFEROXAMINE]
- pIC50 (DLD-1 [1]): 5.54
- pIC50 (SW480 [2]): 5.42

Compound: O=C(O[C@@H]1Cc2c(O)cc(O)cc2O[C@@H]1c1cc(O)c(O)c(O)c1)c1cc(O)c(O)c(O)c1 [EPIGALOCATECHIN GALLATE]
- pIC50 (HCT-116 [3]): 5.30

Compound: O=c1c(-c2ccc(O)cc2)coc2cc(O)cc(O)c12 [GENISTEIN]
- pIC50 (DLD-1 [4]): 4.30

Compound: CC[C@H](C)C(=O)O[C@H]1CCC=C2C=C[C@H](C)[C@H](CC[C@@H]3C[C@@H](O)CC(=O)O3)[C@H]21 [MEVASTATIN]
- pIC50 (DLD-1 [9]): 5.49
- pIC50 (HCT-116 [10]): 4.73

Compound: S=C=NCCc1ccccc1 [PHENETHYLISOTHIOCYANATE]
- pIC50 (DLD-1 [11]): 4.26
- pIC50 (SW480 [12]): 4.45

Compound: COc1cc(C2Oc3cc([C@H]4Oc5cc(O)cc(O)c5C(=O)[C@@H]4O)ccc3OC2CO)ccc1O (stereo partly specified) [SILIBININ]
- pIC50 (SW480 [18]): 4.30
- pIC50 (HCT-116 [19]): 4.30

Results, then the molecule that gave them:

- pIC50 (SW480 [5]): 4.36
- pIC50 (HCT-116 [6]): 4.12
Compound: CC(C)=CCc1c(O)ccc(C(=O)/C=C/c2ccc(O)cc2)c1O [ISOBAVACHALCONE]

- pIC50 (SW480 [7]): 4.70
- pIC50 (HCT-116 [8]): 4.70
Compound: CC1(C)C=Cc2c(ccc(C(=O)/C=C/c3ccccc3)c2O)O1 [LONCHOCARPIN]

- pIC50 (DLD-1 [13]): > 3.70
- pIC50 (HCT-116 [14]): > 3.70
- pIC50 (SW480 [15]): > 3.70
Compound: O=C(/C=C/C=C/c1ccc2c(c1)OCO2)N1CCCCC1 [PIPERINE]

- pIC50 (LoVo): 4.26
Compound: Oc1ccc(/C=C/c2cc(O)cc(O)c2)cc1 [RESVERATROL]

- pIC50 (HCT-116 [16]): 6.02
- pIC50 (DLD-1 [17]): 5.90
Compound: Cn1cnc2c(F)c(Nc3ccc(Br)cc3Cl)c(C(=O)NOCCO)cc21 [SELUMETINIB]

- pIC50 (HCT-116 [16]): 5.94
- pIC50 (DLD-1 [17]): 5.87
Compound: CC(=O)Nc1cccc(-n2c(=O)n(C3CC3)c(=O)c3c(Nc4ccc(I)cc4F)n(C)c(=O)c(C)c32)c1 [TRAMETINIB]

- pIC50 (HCT-116 [20]): 5.43
- pIC50 (SW480 [21]): 5.31
Compound: CC1=C(CO)C(=O)O[C@@H]([C@@H](C)[C@H]2CC[C@H]3[C@@H]4C[C@H]5O[C@]56[C@@H](O)C=CC(=O)[C@]6(C)[C@H]4CC[C@]23C)C1 [WITHAFERIN A]
